Test results taken from patent publication US5663205A, “Pharmaceutical composition for use in glaucoma treatment” (Senju Pharmaceutical Co. Ltd., priority 1992, dated 1997).

Test system: Normal Intraocular Pressure
Assay: Test Example 1 (1): intraocular pressure reducing activity on normal intraocular pressure, pigmented rabbits
Assay type: in vivo, pigmented rabbits (Dutch belted rabbits)
Protocol: Intraocular Pressure Reducing Activity of Amosulalol Hydrochloride on Normal Intraocular Pressure in Pigmented Rabbits Male pigmented rabbits (Dutch belted rabbits) weighing about 2 kg, after having been confirmed to be free from ocular abnormalities; were bred in a breeding room maintained at a temperature of 24± 4° C. and at a relative humidity of 55± 15%, while they were given solid food (Labo RG-RO manufactured by Nihon Nohsan Kogyo K.K.) at a daily rate of 100 g per rabbit and allowed free access to tap water as drinking water. As a test drug, amosulalol hydrochloride was processed into 0.05% (hereinafter, the term "%" is to be understood to designate "w/v %") and 1.0% aqueous solutions which were used in the test, and 0.5% timolol maleate ophthalmic solution [Timoptol (registered trademark): Ban-yu Pharmaceutical Co.] and physiological saline were used as a positive control drug and a control substance, respectively. (1) Measurement of intraocular pressure: Thirty two (32) rabbits were divided into four groups each consisting of 8 rabbits, and 50 μl of test drugs as well as the control drug and physiological saline were applied topically to one eye each of the individual rabbits, with the other being left untreated. Before instillation and 0.5, 1, 2, 3, 4, 6 and 8 hours after topical application,intraocular pressure for both of eyes of each rabbit was measured using a Pneumatonograph (manufactured by Alcon Co. Hereinafter referred to briefly as "PTG"). Shown in FIG. 1 are time-course changes of intraocular pressure taken with the eyes treated by instillation of each of the test drugs, control drug and physiological saline, with time (hour) after instillation taken as abscissa and intraocular pressure (mmHg as ordinate; each value in mean±S.E. (number of cases is 8). The signs "a", "b", "d" and "e" designate physiological saline, 0.05% aqueous solution of amosulalol hydrochloride, 1.0% aqueous solution of amosulalol hydrochloride, and 0.5% ophthalmic solution of timolol maleate, respectively.

COc1ccccc1OCCNCC(O)c1ccc(C)c(S(N)(=O)=O)c1.Cl (stereo not drawn) [amosulalol hydrochloride, 5-[1-hydroxy-2-[2-(2-methoxyphenoxy)ethylamino]ethyl]-2-methylbenzenesulfonamide hydrochloride]
maximum decrease in intraocular pressure (0.05% aqueous solution, 2 hours after topical application): 3.6 mmHg | maximum decrease in intraocular pressure (1.0% aqueous solution, 50 μl topical, 3 hours after instillation): 9.0 mmHg | decrease in intraocular pressure sustained until (time after instillation) (1.0% aqueous solution, sustained from 30 min after instillation): 6 h
